Laboratory results from patent US11530265B2, “Multipartite signaling proteins and uses thereof” (2seventy bio, Inc., priority 2013, dated 2022).
Where two headings read alike, the source gives them in different places.

How the values were obtained:
K562-CD19 cells = conditions: for cytotoxicity responses on titration of bridging factor: DARIC expressing T cells, broad range of drug concentrations
Protocol: The transduced T cells were then co-incubated with about a 50:50 mixture of the K562 target cells expressing either CD19 (K562-CD19) or CD20 (K562-CD20) to evaluate antigen-specific cytotoxicity. […] The DARIC antigen binding component includes a CD19 antigen binding scFv domain and a FKBP12 multimerization domain, which was linked to a mCherry fluorescent protein.
A series of additional DARIC molecules, in which the antigen binding component was maintained on the T cell surface rather than released into the extracellular space, were tested (see, e.g., FIG. 1I). Several protein regions and transmembrane domains were used to anchor the binding domain to the T cell surface (SEQ ID NOS.:50, 53, 56, 59), each altering the spacing or steric parameters governing multimerization of the DARIC binding and signaling components.
Deactivation of the DARIC system by the addition of a pharmacological agent that competes for binding to one of the multimerization domains was tested. Primary human T cells expressing either a traditional CD19 targeting CAR or primary human T cells expressing the CD19 targeting DARIC components (SEQ ID NO.:66) were co-incubated with 50:50 mixtures of K562-CD19 and K562-CD20 cells.

K562-CD19 target cells = assay: Cytotoxicity of IVT-mRNA electroporated T cells encoding DARIC components against K562-CD19/K562-CD20 mixture (flow cytometry); type: cell-based, human
Protocol: Recombinant T cells expressing the two DARIC components were incubated with K562 target cells (a human myeloid leukemia cell line), which were modified to express either CD19 or CD20 antigen, to examine target cell lysis. Briefly, T cells were co-incubated with a 50:50 mixture of K562-CD19 and K562-CD20 target cell lines, at 3:1 or 10:1 T cell to target cell ratios. […] The relative percentage of each of the target cell lines was monitored by flow cytometry staining for the CD19 and CD20 antigens to evaluate cell lysis (see FIG. 3).
Four samples of primary human T cells were prepared by electroporation with IVT-mRNA encoding (i) an extensively validated single-chain chimeric antigen receptor (CAR) (CD19-CAR, SEQ ID NO.:14, positive control); (ii) the DARIC signaling component only (DSC, SEQ ID NO.:16, negative control); iii) the DARIC binding component only (DBC-CD19, SEQ ID NO.:2, negative control); and (iv) both DARIC binding and signaling components (DSC, SEQ ID NO.:16 plus DBC-CD19, SEQ ID NO.:2). The relative percentages of each of the target cell lines were monitored by flow cytometry staining for the CD19 and CD20 antigens (FIG. 3A).
The percent specific cytotoxicity was calculated for each condition as the percentage change relative the input K562-CD19:K562-CD20 ratio.

[1] = tested on: CD19 expressing K562 target cells; assay: Cytokine secretion of T cells encoding DARIC components co-incubated with K562 target cells (Cytokine Bead Array); type: cell-based, human
Protocol: Recombinant T cells expressing the two DARIC components were incubated with K562 target cells (a human myeloid leukemia cell line), which were modified to express either CD19 or CD20 antigen, to examine cytokine expression. […] Supernatants were isolated for analysis of cytokine production (see FIG. 4).
Two samples of primary human T cells were isolated, expanded, and then prepared by electroporation with IVT-mRNA encoding either (i) the validated single-chain CAR (CD19-CAR, SEQ ID NO.:[…], positive control); or (ii) both DARIC binding and signaling components (DSC, SEQ ID NO.:16 plus DBC-CD19, SEQ ID NO.:2). […] The supernatants were then collected and assayed for analyte concentrations using cytokine capture antibody-labeled beads (Becton Dickenson Cytokine Bead Array, human Th1/Th2 kit). Comparison with recombinant protein standards enabled calculation of absolute concentrations of each of the six cytokines encompassed by the bead array.

K562-CD123 target cells = assay: Antigen-specific cytotoxicity of lentivirus-transduced T cells against 50:50 K562-CD19/K562-CD123; type: cell-based, human; conditions: sample containing rapamycin; T:K562 5:1
From the text: The DARIC system was extended to an additional model antigen to show the broad applicability of artificial cells expressing drug regulated multipartite receptors templated herein. K562 target cell lines were generated to express the CD123 antigen by sub-cloning this antigen into a lentiviral vector comprising a puromycin selection cassette (SEQ ID NO.:74), lentiviral particles were produced, and K562 cells were infected and selected with puromycin.

[2] = T cells expressing DARIC components (DSC plus DBC-CD19), 500 nM AP21967, 1:1

CO[C@H]1[C@@H](O)[C@H](C)C[C@H](C)/C=C/C=C/C=C(\C)[C@@H](c2c[nH]c3c(C)cccc23)C[C@@H]2CC[C@@H](C)[C@@](O)(O2)C(=O)C(=O)N2CCCC[C@H]2C(=O)O[C@H]([C@H](C)C[C@@H]2CC[C@@H](O)[C@H](OC)C2)C[C@H](O)[C@H](C)/C=C(\C)[C@H]1O [AP21967, C-16-(S)-7-methylindolerapamycin]
elimination of CD19 expressing K562 cells (K562-CD19 cells; T cells with DARIC signaling component FRB (2021-2113) T2098L, T:K562 5:1, rapamycin 10 nM or AP21967 100 nM): elimination of the CD19 expressing K562 cells | elimination of K562-CD19 cells (K562-CD19 cells; T cells with DARIC signaling component FRB dimerization domain, T:K562 5:1, rapamycin 10 nM or AP21967 100 nM): no effect on cell survival | specific cytotoxicity (K562-CD19 target cells; T cells expressing both DARIC components (DSC plus DBC-CD19), 500 nM AP21967): substantial specific cytoxicity | IFNγ production [1, 2]: equivalent, or superior, to the single chain CD19-CAR positive control | IL-2 production [1, 2]: equivalent, or superior, to the single chain CD19-CAR positive control

C=CC[C@@H]1/C=C(\C)C[C@H](C)C[C@H](OC)[C@H]2O[C@@](O)(C(=O)C(=O)N3CCCC[C@H]3C(=O)O[C@H](/C(C)=C/[C@@H]3CC[C@@H](O)[C@H](OC)C3)[C@H](C)[C@@H](O)CC1=O)[C@H](C)C[C@@H]2OC [FK506]
change in antigen specific cytotoxicity on addition of anti-bridging factor (K562-CD19 cells; CD19 targeting CAR T cells): minimal reduction | change in antigen specific cytotoxicity on addition of anti-bridging factor (K562-CD19 cells; CD19 targeting DARIC T cells with rapamycin): marked reduction

CO[C@H]1C[C@@H]2CC[C@@H](C)[C@@](O)(O2)C(=O)C(=O)N2CCCC[C@H]2C(=O)O[C@H]([C@H](C)C[C@@H]2CC[C@@H](OCCO)[C@H](OC)C2)CC(=O)[C@H](C)/C=C(\C)[C@@H](O)[C@@H](OC)C(=O)[C@H](C)C[C@H](C)/C=C/C=C/C=C/1C [everolimus]
cytotoxicity responses on titration of bridging factor (K562-CD19 cells; T:K562 5:1): maintained to sub-nanomolar drug concentrations

CO[C@H]1C[C@@H]2CC[C@@H](C)[C@@](O)(O2)C(=O)C(=O)N2CCCC[C@H]2C(=O)O[C@H]([C@H](C)C[C@@H]2CC[C@@H](O)[C@H](OC)C2)CC(=O)[C@H](C)/C=C(\C)[C@@H](O)[C@@H](OC)C(=O)[C@H](C)C[C@H](C)/C=C/C=C/C=C/1C [rapamycin]
cytotoxicity responses on titration of bridging factor (K562-CD19 cells; T:K562 5:1): maintained to sub-nanomolar drug concentrations | cytotoxicity response (K562-CD19 cells; mixed T cell populations, one expressing DARIC antigen binding component, the other DARIC signaling component): cytotoxicity response against K562-CD19 cells | antigen specific cytotoxicity (K562-CD19 cells; swapped DARIC: binding component DmrC, signaling component DmrA (SEQ ID NOs.:12, 31), samples containing rapamycin): Antigen specific cytotoxicity was observed

SS-DmrC-CD8TM-41BB-CD3z-P2A-SS-CD123scFv-DmrA-CD4TM protein [CD123 DARIC]
cytotoxicity (K562-CD123 target cells): Cytotoxicity was observed

SS-FRB(T2098L)-TM-41BB-CD3z mRNA [DARIC signaling component]
specific cytotoxicity (K562-CD19 target cells; primary human T cells electroporated with IVT-mRNA, 50:50 K562-CD19/K562-CD20, 3:1 or 10:1 T cell to target cell ratio): no significant cytotoxicity

both DARIC components: T cells expressing both DARIC binding and signaling components
specific cytotoxicity (K562-CD19 target cells; T cells expressing both DARIC components, without addition of AP21967): no significant cytotoxicity | cytokine production ([1]; T cells expressing DARIC components, absence of bridging factor AP21967): no significant cytokine production
